“Also recorded” adds a separate entry of the source. Where two headings read alike, the source gives them in different places. Positions of bridges follow the written chain, without caps; N, C: chain ends. Residues, ends and D or L forms follow the SMILES beside them. No end group written: not given here.
Key:
[1] = target: T1, αvβ3 integrin on U87MG glioblastoma cells (Homo sapiens, UniProt P05106+P06756); experiment: 125I-echistatin competition binding to U87MG glioblastoma cells; details: read-out: IC50, competition with 125I-echistatin, U87MG tumor cells
T1 construct: host or cells: U87MG glioblastoma cells
Procedure: FIG. 9 is a graph showing normalized competition plotted against peptide concentration in an integrin-binding assay on U87MG glioblastoma cells.
U87MG glioblastoma cells, which express ˜10^5 αvβ3 integrin receptors per cell, were used for these studies. […] An EETI-based polypeptide with a scrambled RDG amino acid sequence, designated FN-RDG, served as a negative control.
Half-maximal inhibitory concentrations (IC50) […] of data measured on at least three separate days. Data for unlabeled and Cy5.5-labeled peptides are shown. Site-specific labeling of RGD miniproteins with a near-infrared optical imaging probe: The free N-terminal amine of our polypeptides was used for site-specific attachment of Cy5.5, a near infrared imaging probe.
An αvβ3 integrin receptor binding assay is performed to determine the relative affinities of the mock-PET tracers compared to their unlabeled polypeptides. Briefly, 2×10^5 U87MG glioblastoma cells are incubated with 0.06 nM ^125I-echistatin in integrin binding buffer (25 mM Tris-HCl, pH 7.4, 150 mM NaCl2 1 mM CaCl2 1 mM MgCl2, 1 mM MnCl2, 0.1% BSA), in the presence of increasing concentrations of mock-PET tracers at room temperature. After incubation for 3 h, cells are pelleted by centrifugation at 1500 RPM and washed three times in binding buffer to remove unbound ligands. The radioactivity remaining in the cell pellet is measured by γ counting. IC50 values are determined by plotting the % competition and using a four-point binding equation (Kaleidagraph) to fit the data.

[2] = target: α5β1 integrin (Homo sapiens, UniProt P05556+P08648); experiment: Competition of 125I-echistatin to detergent-solubilized plate-coated integrin; assay type: binding; details: 0.06 nM 125I echistatin, 5 nM and 50 nM peptide
How it was run: (§1)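 Detergent-solubilized integrins were coated on plates. Displacement of 0.06 nM 125I-echistatin by unlabeled peptide was measured at 5 nM and 50 nM. Experiments were run in triplicate.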

[3] = target: αiibβ3 integrin (Homo sapiens, UniProt P05106+P08514); experiment: as above; assay type: binding; details: 0.06 nM 125I echistatin, 5 nM and 50 nM peptide
How it was run: as §1

[4] = target: T2, αvβ3 integrin (Homo sapiens, UniProt P05106+P06756); experiment: as above; assay type: binding; details: 0.06 nM 125I echistatin, 5 nM and 50 nM peptide
How it was run: as §1

[5] = target: αvβ5 integrin (Homo sapiens, UniProt P06756+P18084); experiment: as above; assay type: binding; details: 0.06 nM 125I echistatin, 5 nM and 50 nM peptide
How it was run: as §1

[6] = tested on: U87MG glioblastoma cells; experiment: Blocking of U87MG cell adhesion to vitronectin-coated plates; assay type: cell-based; details: vitronectin-coated wells
Excerpt: (§2) The present engineered peptides may be used in a variety of ways. If the peptides are attached to a surface, they may be used to attract/recruit cells to grow on the surface. For example, the present peptides may be applied to prosthetic devices, implants, bone grafts, and the like to promote tissue growth and healing at the site. They may be attached to culture dishes and promote attachment and differentiation of cells in culture. In addition, the present engineered peptides may be used to modulate cell binding to selected integrins such as α5β1, αvβ3 and αvβ5, particularly αvβ3, by adding the peptides to a cell culture to prevent cells expressing these integrins from adhering to a substrate. […] Also, the present 2.5F, 2.5D and 1.5B peptides were tested for blocking adhesion of U87MG glioblastoma cells to fibronectin-coated plates.
(§3) In another experiment, the ability of engineered knottin peptides to block U87MG cell adhesion to vitronectin- and fibronectin-coated microtiter plates. Vitronectin is a natural ligand for several integrins, including αvβ3 and αvβ5. The RGD-containing peptides were all able to inhibit U87MG cell adhesion to vitronectin-coated plates in a dose-responsive manner. […] Fibronectin also binds to several integrins, (including αvβ3 and α5β1), but the α5β1 integrin receptor is generally selective for fibronectin.
Whether the engineered AgRP peptides could block vitronectin-mediated adhesion to the U87MG cells was tested using an analogous assay. […] The AgRP peptides may not effectively block U87MG adhesion compared to the K562-αvβ3 cells because the αvβ5 integrins co-expressed on the surface of the U87MG cells could also contribute to vitronectin-mediated adhesion and compensate for the loss of αvβ3 integrin function.

[7] = tested on: U87MG glioblastoma cells; experiment: Blocking of U87MG cell adhesion to fibronectin-coated plates; assay type: cell-based
Excerpt: as §2, §3

[8] = tested on: K562-αvβ3 cells; experiment: Inhibition of vitronectin-mediated adhesion of K562-αvβ3 cells; assay type: cell-based; details: vitronectin-coated microtiter wells
Procedure: To determine whether the engineered AgRP peptides could inhibit cell adhesion mediated by vitronectin, the primary ligand for αvβ3 integrin, K562-αvβ3 cells were incubated with varying concentrations of peptides in microtiter wells coated with vitronectin to determine the ability of the peptides to inhibit cell adhesion. […] This difference may be a result of multivalent interactions between the cell surface αvβ3 integrins and the immobilized vitronectin, thereby making it more difficult for the peptides to compete.

[9] = target: T2, αvβ3 integrin; details: cited from earlier work
[10] = target: T2, αvβ3 integrin; experiment: Yeast-displayed peptide binding to soluble αvβ3 integrin, flow cytometry; details: yeast-displayed peptides
Procedure: The yeast display construct shown in FIG. 1A has the general orientation: Aga2-HA-engineered knottin—c-myc epitope, with the c-myc epitope at the carboxy terminus of the peptide. […] Bound integrin is detected with an anti-integrin antibody, labeled with FITC.
Below is a typical protocol to label a yeast library samples for sorting by flow cytometry (FACS): • 1. Want 2×10^6 cells, OD600 of […] • 2. Add 1 mL PBS/BSA (phosphate buffered saline containing 1 mg/mL bovine serum albumin) to wash cells • 3. Spin down cells 3 min at 8000 RPM • 4. Remove supernatant using vacuum • 5. Re-suspend in 40 μL PBS/BSA containing proper amount of integrin (100 nM [2.5 μL of stock αvβ3]; no anti-cmyc at this point) • 6. Incubate for 1.5 h at r.t (w/tumbling) • 7. Add 1:250 dilution of (chick anti-cmyc) to labeling solution • 8. […] Incubate 1 h at 4° C. (w/tumbling) • 10. Keep on ice after this step. • 11. Spin down cells 3 min at 8000 RPM, 4° C. and vacuum supernatant • 12. Repeat wash steps 2-4 • 13. Re-suspend in 40 μL PBS/BSA containing proper amount of secondary labels (secondary labeling is simultaneous) • i. Anti-integrin Ab (FITC conj): 1:25 dilution+Anti-chick (Alexa 555): 1:100 dilution • ii. Positive control: Anti-chick (Alexa 555): 1:100 dilution (for FACS compensation) • iii. Positive control: Anti-chick (Alexa 488): 1:100 dilution (for FACS compensation) • 14. Incubate on ice 30 min and keep in dark (lid on ice bucket) • 15. Spin down cells at 3 min at 8000 RPM, 4° C. and vacuum supernatant • 16. Repeat steps 2-4: Add 1 mL PBS/BSA, pellet cells, vacuum supernatant • 17. Leave pelleted cells on ice until use. Fluorescent Cell Sorting
Commercially available flow cytometers can measure fluorescence emissions at the single-cell level at four or more wavelengths, at a rate of approximately 50,000 cells per second (Ashcroft and Lopez, 2000). Typical flow cytometry data are shown in FIG. 4-7, in which yeast have been labeled with two different color fluorescent probes to measure protein expression levels and bound soluble ligand (in this case integrin receptor). A ‘diagonal’ population of cells results due to variation in protein expression levels on a per cell basis: cells that express more protein will bind more ligand. The equilibrium binding constant (Kd) can be determined by titration of soluble ligand, and the dissociation rate constant (koff) can be measured through competition binding of unlabeled ligand. With yeast, a monodispersity of tethered proteins exists over the cell surface, and soluble ligand are used for binding and testing, such that avidity effects are not observed, unlike other display methods using immobilized ligands. To date, the properties of most proteins expressed on the yeast cell surface mimic what is seen in solution in terms of stability and binding affinity (Bader et al., 2000; Feldhaus et al., 2003; Holler et al., 2000; VanAntwerp and Wittrup, 2000). See, also, Weaver-Feldhaus et al., “Directed evolution for the development of conformation-specific affinity reagents using yeast display,” Protein Engineering Design and Selection Sep. 26, 2005 18(11):527-536.
Cell sorting was carried out on a FACSVantage (BD Biosciences) multiparameter laser flow cytometer and cell sorter. Before sorting, fluorescent staining was carried out as described above, so that analysis of integrin binding and c-myc expression levels were detected, as described above. […]

[11] = tested on: subcutaneous U87MG glioblastoma tumors; experiment: In vivo optical imaging of Cy5.5-labeled peptides in U87MG xenograft mice; parameters: species or system mouse
Procedure: FIG. 8A is a series of 4 pictures showing in vivo imaging of Cy5.5-labeled polypeptides in mice. 1.5 nmol of Cy5.5-labeled EETI-RGD peptide 2.5D or other indicated peptide was injected by tail vein into U87MG glioblastoma xenograft mouse models and imaged at various time points post injection. Arrows indicate the position of tumors. […] Cy5.5-labeled FN-RDG negative control (bottom line, open squares) indicates background levels.
Whole-body imaging of subcutaneous mouse xenografts were imaged with the IVIS 200 system (Xenogen) and quantified with Living Image 2.50.1 software.

[12] = tested on: U87MG tumor; experiment: MicroPET imaging and biodistribution of radiolabeled peptides in U87MG tumor-bearing mice; assay type: in vivo, mouse; details: radiolabeled peptides, U87MG tumor-bearing mice
How it was run: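 Female athymic nude mice carrying subcutaneous U87MG xenografts (8–10 mm) received ~100 μCi 64Cu-DOTA peptides i.v. (tail vein); static microPET scans under 2% isoflurane. %ID/g obtained from ROIs on decay-corrected images assuming 1 g/mL density, without attenuation correction. Biodistribution measured by γ-counting of excised tissues, reported as %ID/g mean±SD.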

Compound: ECESGPCCRNCKFLKEGTICKRARGDDMDDYCNGKTCDCPRNPHKGPAT (disulfide 2-11, 7-32, 8-37, 20-39 (inferred)) [Echistatin, echistatin]
- IC50 ([1]; Cy5.5-labeled peptides (Cy5.5: Yes)): 2.6 ± 0.2 nM
- IC50 ([1]; unlabeled peptides (Cy5.5: No)): 4.9 ± 1 nM
- binding to α5β1 integrin, in words [2]: binds strongly; also recorded: bound strongly
- binding to αiibβ3 integrin, in words [3]: binds strongly; also recorded: bound strongly
- binding to αvβ3 integrin, in words [4]: binds strongly; also recorded: bound strongly
- binding to αvβ5 integrin, in words [5]: binds strongly; also recorded: bound strongly
- IC50 [6]: 5.8 nM
- blocking of U87MG cell adhesion to fibronectin, in words [7]: blocked adhesion; also recorded: able to block
- IC50 [8]: 3.2 ± 2.7 nM
- Kd [9]: 0.3 nM

Compound: CC(C)C[C@@H]1NC(=O)[C@@H]2CSSC[C@@H](C(=O)NCC(=O)O)NC(=O)[C@H](Cc3ccccc3)NC(=O)CNC(=O)[C@H](CC(N)=O)NC(=O)[C@@H]3CCCN3C(=O)CNC(=O)[C@@H]3CSSC[C@H](NC(=O)[C@H](CO)NC(=O)[C@H](CO)NC(=O)[C@H](C)NC(=O)[C@@H]4CCCN4C(=O)[C@H](CO)NC(=O)[C@H](CC(=O)O)NC(=O)CNC(=O)[C@H](CCCNC(=N)N)NC(=O)CNC(=O)[C@H]([C@@H](C)O)NC(=O)[C@H](C(C)C)NC(=O)[C@@H](NC(=O)CN)CSSC[C@H](NC(=O)CNC(=O)[C@H](C)NC1=O)C(=O)N[C@@H](C(C)C)C(=O)N3)C(=O)N[C@@H](CCCCN)C(=O)N[C@@H](CCC(N)=O)C(=O)N[C@@H](CC(=O)O)C(=O)N[C@@H](CO)C(=O)N[C@@H](CC(=O)O)C(=O)N2 [RGD-EETI#3] (H-GCVTGRGDSPASSCKQDSDCLAGCVCGPNGFCG-OH; disulfide 2-24, 14-26, 20-32; N-terminus and C-terminus assumed)
- integrin binding compared in words [10]: binds better than the 10th domain of fibronectin
- tumor uptake / imaging signal of Cy5.5-labeled peptide, in words [11]: significantly weaker imaging signals
- PET tumor targeting / imaging signal, in words [12]: significantly weaker imaging signals

Source: US9265845B2, “Imaging methods using engineered integrin binding peptides” (The Board of Trustees of the Leland Stanford Junior …, priority 2006, dated 2016)
